Several values for one entry are separate records, joined by “and”; a condition that tells them apart may be missing. Equal values may be shown once. Read-outs that look alike come from different tables or passages of the source.
Key:
mGluR5 = target: T1, mGluR5 (Homo sapiens, UniProt P41594); experiment: aequorin calcium assay, negative allosteric modulation of mGluR5; assay type: cell-based
T1 construct: expression induced with doxycycline
Experimental: (§1) The ability of test compound to ameliorate the efflux of calcium cations (Ca^++) in the presence of agonist (glutamate or quisqualate) is measured by detection of light emitted by the luminescent protein aequorin triggered by binding of Ca^++. Aequorin is a photoprotein isolated from luminescent jellyfish (like various Aequorea species e.g. Aequorea victoria). Aequorin is composed of two distinct units, the apoprotein apoaequorin, with an approximate molecular weight of 22 kDa, and the prosthetic group, coelenterazine, responsible for emission of light. In the presence of molecular oxygen the two components of aequorin assemble spontaneously, forming the functional protein. Four EF-hand type regions have been identified in the structure of Aequorin and at least 3 of them function as binding sites for Ca+2 ions: Ca+2 binding to these EF hands triggers a conformational change of the protein, that leads it to oxidize its prosthetic group, coelenterazine, into excited coelenteramide and CO2. As the excited coelenteramide relaxes to the ground state, blue light (wavelength=469 nm) is emitted and can be measured by a luminometer. Negative allosteric modulator activity of test compound is expressed as a percentage of the stimulation of reference agonist (glutamate) activity at its EC80 concentration. Assay of Compounds was performed at Euroscreen SA, Gosselies, Belgium.
(§2) Cells stably transfected with mGlu1 or mGlu5 were grown 18 hours prior to the test in culture medium containing 600 ng/ml doxycycline, then were detached by gentle flushing with PBS-EDTA, recovered by centrifugation and resuspended in “assay buffer” (HBSS, 2.1 mM CaCl2, 3 μg/ml GPT (Glutamate-Pyruvate transaminase), 4 mM MEM Sodium Pyruvate, 0.1% BSA, protease free). Cells were incubated at room temperature for at least 4 h with coelenterazine-h. Dose response curves were performed using mGluR1 cells with the orthosteric agonist glutamate and negative allosteric modulator JNJ16259685. Dose response curves were performed using mGluR5 cells with the orthosteric agonist glutamate and negative allosteric modulator MPEP. For agonist testing, 30 μl of cell suspension were mixed with 30 μl of test compound or reference agonist in a 384-well plate. The resulting emission of light was recorded using the Hamamatsu Functional Drug Screening System 6000 (FDSS 6000). For negative allosteric modulator testing, 60 μl of the resulting cell suspension containing the test compound was mixed with 30 μl of the reference agonist at EC80 following an incubation of 3 min after the first injection. The resulting emission of light was recorded using FDSS 6000. […] Plates also contained the reference agonist at a concentration equivalent to the EC80 obtained during the test validation. Negative allosteric modulator activity of test compound was expressed as a percentage of the stimulation of reference agonist activity at its EC80 concentration.

mGluR1 [1] = target: T2, mGluR1 (Homo sapiens, UniProt Q13255); experiment: aequorin calcium assay, negative allosteric modulation of mGluR1; assay type: cell-based; conditions: thiazole derivatives of benzamide, in vitro activity; read-out: binding at mGluR1
T2 construct: expression induced with doxycycline

mGluR1 [2] = target: T2, mGluR1; experiment: as above; assay type: cell-based; conditions: aequorin assay, agonist at EC80; 10000 = no activity observed at 10,000 nM
Experimental: as §1, §2

[3] = system: hyperalgesia in partial sciatic nerve ligation rat; experiment: partial sciatic nerve ligation (PSN) model of neuropathic pain, paw withdrawal method; assay type: in vivo; design: AUC (0-5): unit not given beside the values; conditions: for % MPE (0-100) 1 hr / Paw withdrawal thresholds (g; raw data) 1 hr / Raw MPE (%) 1 hr / % MPE (0-100) 3 hrs / Paw withdrawal thresholds (g; raw data) 3 hrs / Raw MPE (%) 3 hrs / % MPE (0-100) 5 hrs / Paw withdrawal thresholds (g; raw data) 5 hrs / Raw MPE (%) 5 hrs / % MPE (0-100) 24 hrs / Paw withdrawal thresholds (g; raw data) 24 hrs / Raw MPE (%) 24 hrs / AUC (0-5): PSN Sx rat
Experimental: Briefly, under gas anesthesia, the skin and muscles of the thigh were reflected to expose the sciatic nerve. About one-third to one-half of the cross-sectional area of the nerve was tightly ligated using a 7-0 nylon suture. The incision was closed in layers (suture for muscle, surgical adhesive for skin). […] Treated rats were assayed at 1, 3, 5, and 24 hr using the paw withdrawal method (L. Randall and J. Selitto, 1957, Arch. Int. Pharmacodynam., 111:409-19). […] The Partial sciatic nerve ligation assay was performed at Eurofins/Product Safety Laboratories (Dayton, N.J.).
Animals were housed in cages which conform to the size recommendations in the most recent NIH Guide for the Care and Use of Laboratory Animals. […] The animals were fed Purina Rodent Chow #5012. The animals were acclimated to the facility for 7 days prior to the study. A pre-operative baseline paw withdrawal measure was collected for all rats. […] After recovery, a pre-dosing baseline paw withdrawal threshold was collected for all rats. […] Rats were lightly anesthetized and treated with test article or vehicle. Paw withdrawal thresholds were determined at one, three, five, and 24 hours post dosing. […] Briefly, under gas anesthesia, the skin and muscles of the thigh were reflected to expose the sciatic nerve. About one third to one half of the cross-sectional area of the nerve was tightly ligated using a 7-0 nylon suture. The incision was closed in layers (suture for muscle, surgical adhesive for skin). Test article or vehicle was administered by transcutaneous injection (C. Mestre et al., 1994, J. Pharm. Tox. Meth., 32:197-200). Briefly, the rat was lightly anesthetized and placed to flex the lower lumbar vertebrae. After palpating the vertebral processes, a 26 gauge needle was inserted through a vertebral interspace. The presence of a tail flick was considered validation of the needle placement; the solution was then injected. Paw withdrawal thresholds were assessed using a paw pressure device (L. O. Randall & J. J. Selitto, 1957, Arch. Int. Pharmacodyn., 111:409-19). The behavioral endpoint was defined as paw withdrawal. Data was analyzed by two-way analysis of variance (repeated measures) with Bonferroni tests at individual time points. Paw withdrawal threshold raw values were used for the analysis, and each route of administration was analyzed separately. Vehicle-treated groups were used as the statistical comparison groups.

[4] = thiazole derivatives of benzamide, in vitro activity, read-out: binding at mGluR5
[5] = 10 μg intrathecal, group Average (N 6)
[6] = 10 μg intrathecal, individual rat, listed as SND 121
[7] = 49 μg intrathecal, group Average (N 6)
[8] = 49 μg intrathecal, individual rat, listed as SND 121

T2 sequence (Q13255 19-1194): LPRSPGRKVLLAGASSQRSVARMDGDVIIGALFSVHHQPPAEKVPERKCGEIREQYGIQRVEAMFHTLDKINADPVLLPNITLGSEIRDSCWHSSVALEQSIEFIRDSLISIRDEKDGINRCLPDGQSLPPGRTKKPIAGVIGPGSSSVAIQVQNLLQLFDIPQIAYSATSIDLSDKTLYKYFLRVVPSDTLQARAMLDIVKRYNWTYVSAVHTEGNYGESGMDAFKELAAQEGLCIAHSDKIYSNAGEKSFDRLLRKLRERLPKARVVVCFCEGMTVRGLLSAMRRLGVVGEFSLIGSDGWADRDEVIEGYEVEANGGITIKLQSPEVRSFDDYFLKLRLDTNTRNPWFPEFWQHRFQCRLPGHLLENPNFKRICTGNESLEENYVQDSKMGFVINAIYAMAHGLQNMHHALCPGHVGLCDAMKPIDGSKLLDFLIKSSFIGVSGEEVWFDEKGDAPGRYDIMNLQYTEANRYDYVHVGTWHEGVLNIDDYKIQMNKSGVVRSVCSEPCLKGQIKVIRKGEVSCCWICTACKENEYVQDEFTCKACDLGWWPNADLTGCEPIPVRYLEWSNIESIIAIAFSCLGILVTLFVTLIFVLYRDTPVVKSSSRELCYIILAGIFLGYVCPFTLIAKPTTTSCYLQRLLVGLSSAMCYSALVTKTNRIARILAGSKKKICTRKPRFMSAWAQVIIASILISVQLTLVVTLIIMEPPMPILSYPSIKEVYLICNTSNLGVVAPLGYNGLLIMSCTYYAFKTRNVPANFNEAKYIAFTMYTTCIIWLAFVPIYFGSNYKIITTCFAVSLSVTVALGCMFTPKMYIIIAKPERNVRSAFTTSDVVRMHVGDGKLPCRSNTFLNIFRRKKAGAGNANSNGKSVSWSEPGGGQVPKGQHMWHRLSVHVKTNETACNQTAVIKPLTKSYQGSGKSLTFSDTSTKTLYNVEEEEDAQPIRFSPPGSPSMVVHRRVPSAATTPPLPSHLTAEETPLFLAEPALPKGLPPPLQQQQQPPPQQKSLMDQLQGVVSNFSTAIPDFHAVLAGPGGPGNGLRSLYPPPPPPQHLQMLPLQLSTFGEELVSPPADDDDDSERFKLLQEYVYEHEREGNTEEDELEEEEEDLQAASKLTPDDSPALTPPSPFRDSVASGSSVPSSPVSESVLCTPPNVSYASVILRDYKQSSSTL
T1 sequence (P41594 21-1212): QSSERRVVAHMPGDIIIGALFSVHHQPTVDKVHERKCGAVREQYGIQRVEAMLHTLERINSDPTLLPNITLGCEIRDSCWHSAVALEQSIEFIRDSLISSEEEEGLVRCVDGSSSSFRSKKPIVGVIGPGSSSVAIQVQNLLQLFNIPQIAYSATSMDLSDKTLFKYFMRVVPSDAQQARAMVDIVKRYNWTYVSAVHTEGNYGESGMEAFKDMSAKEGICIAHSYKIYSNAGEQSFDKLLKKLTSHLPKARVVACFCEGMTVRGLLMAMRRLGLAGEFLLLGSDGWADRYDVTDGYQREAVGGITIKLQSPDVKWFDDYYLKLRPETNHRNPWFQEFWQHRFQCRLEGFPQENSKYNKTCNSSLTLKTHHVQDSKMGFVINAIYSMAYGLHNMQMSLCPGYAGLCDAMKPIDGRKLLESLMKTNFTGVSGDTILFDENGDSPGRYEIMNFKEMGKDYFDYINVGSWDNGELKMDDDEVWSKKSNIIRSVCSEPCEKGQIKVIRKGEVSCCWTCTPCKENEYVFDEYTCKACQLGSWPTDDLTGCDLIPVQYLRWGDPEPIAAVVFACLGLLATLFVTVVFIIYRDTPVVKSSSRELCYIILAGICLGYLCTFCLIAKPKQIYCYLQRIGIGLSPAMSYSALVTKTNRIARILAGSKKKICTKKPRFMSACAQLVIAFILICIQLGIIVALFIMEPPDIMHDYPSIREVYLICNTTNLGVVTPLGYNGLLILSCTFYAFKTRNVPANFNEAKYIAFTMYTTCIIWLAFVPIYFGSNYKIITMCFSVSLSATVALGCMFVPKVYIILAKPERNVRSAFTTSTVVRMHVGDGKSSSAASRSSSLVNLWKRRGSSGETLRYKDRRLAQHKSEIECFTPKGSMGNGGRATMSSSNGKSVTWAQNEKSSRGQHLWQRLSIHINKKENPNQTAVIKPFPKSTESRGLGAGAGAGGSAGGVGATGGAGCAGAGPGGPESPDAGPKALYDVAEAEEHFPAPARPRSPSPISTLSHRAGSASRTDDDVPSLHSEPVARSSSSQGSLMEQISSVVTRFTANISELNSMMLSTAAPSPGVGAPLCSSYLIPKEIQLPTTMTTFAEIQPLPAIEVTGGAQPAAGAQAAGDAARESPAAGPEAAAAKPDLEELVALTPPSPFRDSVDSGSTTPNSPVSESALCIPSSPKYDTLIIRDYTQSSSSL

Q: Which EC50 (mGluR5; [4]) does the source give for CC(=O)Oc1ccc(Cl)cc1C(=O)Nc1nc([N+](=O)[O-])cs1 here?
A: 2760 nM

Q: And the EC50 (mGluR1 [1])?
A: 6320 nM

Q: For O=C(Nc1nc([N+](=O)[O-])cs1)c1cc(Cl)ccc1O, which EC50 (mGluR5; [4]) is on record?
A: 1250 nM

Q: And the EC50 (mGluR1 [1])?
A: 1760 nM

Q: O=C(Nc1ccc([N+](=O)[O-])cc1Cl)c1cc(Cl)ccc1O [Compound 1, 5-Chloro-N-(2-chloro-4-nitrophenyl)-2-hydroxybenzamide] was tested. Which EC50 (mGluR1 [2]) did it give?
A: 38 nM

Q: And the EC50 (mGluR5; aequorin assay, agonist at EC80, 10000 = no activity observed at 10,000 nM, read-out: mGluR5 EC50)?
A: 62 nM

Q: What about the “% MPE (0-100) 1 hr” value [3, 5] of the same compound?
A: 29.7%

Q: And the “Paw withdrawal thresholds (g; raw data) 1 hr” value [3, 5]?
A: 125.8 g

Q: And the “Raw MPE (%) 1 hr” value [3, 5]?
A: 31.3%

Q: And the “% MPE (0-100) 1 hr” value [3, 6]?
A: 0.0% (3×) and 6.7% and 100.0% and 71.5%

Q: What about the “Paw withdrawal thresholds (g; raw data) 1 hr” value [3, 6] of the same compound?
A: 90 g (2×) and 60 g and 105 g and 250 g and 160 g

Q: What about the “Raw MPE (%) 1 hr” value [3, 6] of the same compound?
A: −10.9% (2×) and 6.7% and 177.6% and 71.5%

Q: And the “% MPE (0-100) 3 hrs” value [3, 5]?
A: 39.9%

Q: What about the “Paw withdrawal thresholds (g; raw data) 3 hrs” value [3, 5] of the same compound?
A: 130.0 g

Q: And the “Raw MPE (%) 3 hrs” value [3, 5]?
A: 41.8%

Q: What about the “% MPE (0-100) 3 hrs” value [3, 6] of the same compound?
A: 41.8% and 27.5% and 0.0% (2×) and 100.0% and 70.3%

Q: And the “Paw withdrawal thresholds (g; raw data) 3 hrs” value [3, 6]?
A: 130 g and 120 g and 100 g (2×) and 180 g and 150 g

Q: And the “Raw MPE (%) 3 hrs” value [3, 6]?
A: 41.8% and 27.5% and −1.0% (2×) and 113.1% and 70.3%

Q: What about the “% MPE (0-100) 5 hrs” value [3, 5] of the same compound?
A: 34.7%

Q: And the “Paw withdrawal thresholds (g; raw data) 5 hrs” value [3, 5]?
A: 122.5 g

Q: And the “Raw MPE (%) 5 hrs” value [3, 5]?
A: 33.6%

Q: What about the “% MPE (0-100) 5 hrs” value [3, 6] of the same compound?
A: 30.3% (2×) and 0.0% and 43.6% and 100.0% and 3.8%

Q: What about the “Paw withdrawal thresholds (g; raw data) 5 hrs” value [3, 6] of the same compound?
A: 120 g (2×) and 70 g and 130 g and 195 g and 100 g

Q: What about the “Raw MPE (%) 5 hrs” value [3, 6] of the same compound?
A: 30.3% (2×) and −36.0% and 43.6% and 129.9% and 3.8%

Q: What about the “% MPE (0-100) 24 hrs” value [3, 5] of the same compound?
A: 28.6%

Q: And the “Paw withdrawal thresholds (g; raw data) 24 hrs” value [3, 5]?
A: 117.5 g

Q: And the “Raw MPE (%) 24 hrs” value [3, 5]?
A: 33.9%

Q: And the “% MPE (0-100) 24 hrs” value [3, 6]?
A: 44.5% and 16.2% and 2.0% and 9.1% and 100.0% and 0.0%

Q: What about the “Paw withdrawal thresholds (g; raw data) 24 hrs” value [3, 6] of the same compound?
A: 125 g and 105 g and 95 g and 100 g and 195 g and 85 g

Q: What about the “Raw MPE (%) 24 hrs” value [3, 6] of the same compound?
A: 44.5% and 16.2% and 2.0% and 9.1% and 143.7% and −12.1%

Q: And the “AUC (0-5)” value [3, 5]?
A: 159.1

Q: What about the “AUC (0-5)” value [3, 6] of the same compound?
A: 113.9 and 85.3 and 0.0 and 53.7 and 450.0 and 251.7

Q: What about the “% MPE (0-100) 1 hr” value [3, 7] of the same compound?
A: 80.7%

Q: And the “Paw withdrawal thresholds (g; raw data) 1 hr” value [3, 7]?
A: 199.2 g

Q: And the “Raw MPE (%) 1 hr” value [3, 7]?
A: 117.7%

Q: And the “% MPE (0-100) 1 hr” value [3, 8]?
A: 100.0% (4×) and 48.0% and 36.2%

Q: What about the “Paw withdrawal thresholds (g; raw data) 1 hr” value [3, 8] of the same compound?
A: 250 g (2×) and 190 g and 140 g and 130 g and 235 g

Q: What about the “Raw MPE (%) 1 hr” value [3, 8] of the same compound?
A: 177.6% (2×) and 106.9% and 48.0% and 36.2% and 159.9%

Q: What about the “% MPE (0-100) 3 hrs” value [3, 7] of the same compound?
A: 54.2%

Q: What about the “Paw withdrawal thresholds (g; raw data) 3 hrs” value [3, 7] of the same compound?
A: 163.3 g

Q: What about the “Raw MPE (%) 3 hrs” value [3, 7] of the same compound?
A: 89.3%

Q: And the “% MPE (0-100) 3 hrs” value [3, 8]?
A: 100.0% (2×) and 70.3% and 0.0% and 41.8% and 13.2%

Q: And the “Paw withdrawal thresholds (g; raw data) 3 hrs” value [3, 8]?
A: 250 g (2×) and 150 g and 90 g and 130 g and 110 g

Q: What about the “Raw MPE (%) 3 hrs” value [3, 8] of the same compound?
A: 212.9% (2×) and 70.3% and −15.3% and 41.8% and 13.2%

Q: And the “% MPE (0-100) 5 hrs” value [3, 7]?
A: 31.8%

Q: What about the “Paw withdrawal thresholds (g; raw data) 5 hrs” value [3, 7] of the same compound?
A: 119.2 g

Q: And the “Raw MPE (%) 5 hrs” value [3, 7]?
A: 29.2%

Q: What about the “% MPE (0-100) 5 hrs” value [3, 8] of the same compound?
A: 100.0% and 43.6% (2×) and 3.8% and 0.0% (2×)

Q: And the “Paw withdrawal thresholds (g; raw data) 5 hrs” value [3, 8]?
A: 180 g and 130 g (2×) and 100 g and 80 g and 95 g

Q: What about the “Raw MPE (%) 5 hrs” value [3, 8] of the same compound?
A: 110.0% and 43.6% (2×) and 3.8% and −22.7% and −2.8%

Q: And the “% MPE (0-100) 24 hrs” value [3, 7]?
A: 1.5%

Q: What about the “Paw withdrawal thresholds (g; raw data) 24 hrs” value [3, 7] of the same compound?
A: 84.2 g

Q: And the “Raw MPE (%) 24 hrs” value [3, 7]?
A: −13.3%

Q: What about the “% MPE (0-100) 24 hrs” value [3, 8] of the same compound?
A: 0.0% (5×) and 9.1%

Q: And the “Paw withdrawal thresholds (g; raw data) 24 hrs” value [3, 8]?
A: 90 g (3×) and 55 g and 100 g and 80 g

Q: What about the “Raw MPE (%) 24 hrs” value [3, 8] of the same compound?
A: −5.1% (3×) and −54.6% and 9.1% and −19.2%

Q: And the “AUC (0-5)” value [3, 7]?
A: 261.3

Q: And the “AUC (0-5)” value [3, 8]?
A: 450.0 and 334.2 and 153.8 and 155.5 and 80.8 and 393.6

Q: And the “effectiveness in model of hyperalgesia vs 100 μg gabapentin” value ([3]; 49 μg intrathecal, rat)?
A: considerably more effective

Q: What about the “reversing hyperalgesia, compared to gabapentin” value ([3]; 10 or 49 μg intrathecal vs 100 μg gabapentin, rat) of the same compound?
A: essentially as effective or more effective as gabapentin
